Assay results reported in the NIST ThermoML archive (doi:10.1021/je4000845).
Numbers after ± are expanded uncertainties.

Conditions: Crystal; visual observation

Normal melting temperature: 174.1 ± 1 °C
SMILES: Nc1cccc(C(=O)O)c1 [3-aminobenzoic acid]
